Measurements as given in patent publication US10745382B2 (BRISTOL-MYERS SQUIBB COMPANY, priority 2015, dated 2020).

Each compound was assayed against T1, PD-1/PD-L1 (Homo sapiens, UniProt Q9NZQ7) (assay: PD-1/PD-L1 Homogenous Time-Resolved Fluorescence (HTRF) binding assay). Settings: PD-L1-His 10 nM, PD-1-Ig 20 nM; numeric IC50; read-out: Range or IC50.
T1 construct: made in house; host or cells: HEK293T
T1 sequence (Q9NZQ7 with tags, fused parts or gaps): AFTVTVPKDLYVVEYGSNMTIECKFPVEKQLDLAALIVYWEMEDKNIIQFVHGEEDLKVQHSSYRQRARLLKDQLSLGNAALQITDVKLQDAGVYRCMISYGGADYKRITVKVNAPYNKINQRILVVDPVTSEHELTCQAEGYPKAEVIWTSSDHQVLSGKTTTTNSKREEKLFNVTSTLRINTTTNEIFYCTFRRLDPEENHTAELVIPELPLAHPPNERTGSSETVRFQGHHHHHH
Method: The ability of the compounds of formula (I) to bind to PD-L1 was investigated using a PD-1/PD-L1 Homogenous Time-Resolved Fluorescence (HTRF) binding assay.
Homogenous Time-Resolved Fluorescence (HTRF) Binding Assay.
All binding studies were performed in an HTRF assay buffer consisting of dPBS supplemented with 0.1% […] bovine serum albumin and 0.05% (v/v) Tween-20. […] HTRF detection was achieved using europium crypate-labeled anti-Ig (1 nM final) and allophycocyanin (APC) labeled anti-His (20 nM final). Antibodies were diluted in HTRF detection buffer and 5 μl was dispensed on top of the binding reaction. […] Additional binding assays were established between the human proteins PD-1-Ig/PD-L2-His (20 & 5 nM, respectively) and CD80-His/PD-L1-Ig (100 & 10 nM, respectively). […]
`Cc1c(COc2cc(OCc3cncc(C#N)c3)c(CN3CCCC[C@H]3C(=O)O)cc2Cl)cccc1-c1cccc(OCCCN2CCN(c3ccccn3)CC2)c1C` [Example 2216, (2S)-1-(5-chloro-2-((5-cyanopyridin-3-yl)methoxy)-4-((2,2′-dimethyl-3′-(3-(4-(pyridin-2-yl)piperazin-1-yl)propoxy)biphenyl-3-yl)methoxy)benzyl)piperidine-2-carboxylic Acid] showed an IC50 of 30 nM.

Same assay, conditions: PD-L1-His 10 nM, PD-1-Ig 20 nM; value given as range class; read-out: Range or IC50
In the case of `COc1cc(OCc2cccc(-c3cccc(OCCCN4CC[C@@H](O)C4)c3C)c2C)c(Cl)cc1CN[C@@](C)(CO)C(=O)O` [Example 3033, (2S)-2-((5-chloro-4-((3′-(3-((R)-3-hydroxypyrrolidin-1-yl)propoxy)-2,2′-dimethyl-[1,1′-biphenyl]-3-yl)methoxy)-2-methoxybenzyl)amino)-3-hydroxy-2-methylpropanoic Acid], the IC50 is reported as 0.21 to 10 nM. With `Cc1c(COc2cc(OCc3cncc(C#N)c3)c(CNC3(C(=O)O)CC3)cc2Cl)cccc1-c1cccc(OCCCN2CC[C@@H](O)C2)c1C` [Example 4110, (R)-1-((5-chloro-2-((5-cyanopyridin-3-yl)methoxy)-4-((3′-(3-(3-hydroxypyrrolidin-1-yl)propoxy)-2,2′-dimethyl-[1,1′-biphenyl]-3-yl)methoxy)benzyl)amino)cyclopropane-1-carboxylic Acid] the IC50 was 0.21 to 10 nM. For `Cc1c(COCCN2CC[C@@H](O)C2)cccc1-c1cccc(COc2cc(OCc3cncc(C#N)c3)c(CN3CCCC[C@H]3C(=O)O)cc2Cl)c1C` [Example 4126, (S)-1-(5-chloro-2-((5-cyanopyridin-3-yl)methoxy)-4-((3′-((2-((R)-3-hydroxypyrrolidin-1-yl)ethoxy)methyl)-2,2′-dimethyl-[1,1′-biphenyl]-3-yl)methoxy)benzyl)piperidine-2-carboxylic Acid], the IC50 was 0.21 to 10 nM. `Cc1ccc(COc2cc(OCc3cccc(-c4cccc(OCCCN5CC[C@@H](O)C5)c4C)c3C)c(Cl)cc2CNC(CO)CO)cc1C` [Example 4505, (R)-2-((5-chloro-2-((3,4-dimethylbenzyl)oxy)-4-((3′-(3-(3-hydroxypyrrolidin-1-yl)propoxy)-2,2′-dimethyl-[1,1′-biphenyl]-3-yl)methoxy)benzyl)amino)propane-1,3-diol] gave an IC50 of 0.21 to 10 nM. `CCNC(=O)c1cccc(-c2cccc(COc3cc(OCc4cc(F)cc(F)c4)c(CN4C[C@H](O)C[C@H]4C(=O)O)cc3Cl)c2C)c1C` [Example 4019, (2S,4R)-1-(5-chloro-2-((3,5-difluorobenzyl)oxy)-4-((3′-(ethylcarbamoyl)-2,2′-dimethyl-[1,1′-biphenyl]-3-yl)methoxy)benzyl)-4-hydroxypyrrolidine-2-carboxylic Acid] was tested, and the IC50 was 100 to 2000 nM. Work on `CC(=O)N[C@H]1CCN(CCCOc2cccc(-c3cccc(COc4cc(OCc5cncc(C#N)c5)c(CN[C@](C)(CO)C(=O)O)cc4Cl)c3Cl)c2Cl)C1` [Example 2070, (R)-2-((4-((3′-(3-((S)-3-acetamidopyrrolidin-1-yl)propoxy)-2,2′-dichloro-[1,1′-biphenyl]-3-yl)methoxy)-5-chloro-2-((5-cyanopyridin-3-yl)methoxy)benzyl)amino)-3-hydroxy-2-methylpropanoic Acid] yielded an IC50 of 0.21 to 10 nM. For `Cc1c(COc2cc(OCc3cncc(C#N)c3)c(CN[C@](C)(CO)C(=O)O)cc2Cl)cccc1-c1cccc(OCCCN2CCCCC2)c1Cl` [Example 2016, (R)-2-((5-chloro-4-((2′-chloro-2-methyl-3′-(3-(piperidin-1-yl)propoxy)-[1,1′-biphenyl]-3-yl)methoxy)-2-((5-cyanopyridin-3-yl)methoxy)benzyl)amino)-3-hydroxy-2-methylpropanoic Acid], the IC50 was 0.21 to 10 nM. For `COC(=O)C1(O)CCN(CCCOc2cccc(-c3cccc(COc4cc(OCc5cncc(S(C)(=O)=O)c5)c(CN[C@H](CO)C(=O)O)cc4Cl)c3C)c2C)C1` (stereo partly drawn) [Example 1056, (2R)-2-((5-chloro-4-((3′-(3-(3-hydroxy-3-(methoxycarbonyl)pyrrolidin-1-yl)propoxy)-2,2′-dimethyl-[1,1′-biphenyl]-3-yl)methoxy)-2-((5-(methylsulfonyl)pyridin-3-yl)methoxy)benzyl)amino)-3-hydroxypropanoic Acid], the IC50 was 0.21 to 10 nM. Compound `Cc1c(COc2cc(OCc3cncc(C#N)c3)c(CNC(CO)CO)cc2Cl)cccc1-c1cccc(OCCCN2CC[C@@H](O)C2)c1Cl` [Example 2035, (R)-5-((4-chloro-5-((2′-chloro-3′-(3-(3-hydroxypyrrolidin-1-yl)propoxy)-2-methyl-[1,1′-biphenyl]-3-yl)methoxy)-2-(((1,3-dihydroxypropan-2-yl)amino)methyl)phenoxy)methyl)nicotinonitrile] has an IC50 of 0.21 to 10 nM. `CNC1CCN(CCCOc2cccc(-c3cccc(COc4cc(OCc5cncc(C#N)c5)c(CN5CCCC[C@H]5C(=O)O)cc4Cl)c3C)c2C)CC1` [Example 2269, (2S)-1-(5-chloro-2-((5-cyanopyridin-3-yl)methoxy)-4-((2,2′-dimethyl-3′-(3-(4-(methylamino)piperidin-1-yl)propoxy)biphenyl-3-yl)methoxy)benzyl)piperidine-2-carboxylic Acid] was tested, and the IC50 was 0.21 to 10 nM. Compound `CNC(=O)C1CCN(CCCOc2cccc(-c3cccc(COc4cc(OCc5cncc(C#N)c5)c(CN5CCCC[C@H]5C(=O)O)cc4Cl)c3C)c2Cl)CC1` [Example 1077, (S)-1-(5-chloro-4-((2′-chloro-2-methyl-3′-(3-(4-(methylcarbamoyl)piperidin-1-yl)propoxy)-[1,1′-biphenyl]-3-yl)methoxy)-2-((5-cyanopyridin-3-yl)methoxy)benzyl)piperidine-2-carboxylic Acid] has an IC50 of 0.21 to 10 nM. Work on `CCNC(=O)c1cccc(-c2cccc(COc3cc(OCc4cc(F)cc(F)c4)c(CNC(CO)CO)cc3Cl)c2C)c1C` [Example 4021, 3′-((2-chloro-5-((3,5-difluorobenzyl)oxy)-4-(((1,3-dihydroxypropan-2-yl)amino)methyl)phenoxy)methyl)-N-ethyl-2,2′-dimethyl-[1,1′-biphenyl]-3-carboxamide] yielded an IC50 of 100 to 2000 nM. `Cc1c(COc2cc(OCc3cncc(C#N)c3)c(CN[C@](C)(CO)C(=O)O)cc2Cl)cccc1-c1cccc(OCCCN2CCC[C@H](C(=O)O)C2)c1Cl` [Example 2008, (S)-1-(3-((3′-((4-((((R)-2-carboxy-1-hydroxypropan-2-yl)amino)methyl)-2-chloro-5-((5-cyanopyridin-3-yl)methoxy)phenoxy)methyl)-2-chloro-2′-methyl-[1,1′-biphenyl]-3-yl)oxy)propyl)piperidine-3-carboxylic Acid] gave an IC50 of 0.21 to 10 nM. For `CC(CO)(CO)NCc1cc(Cl)c(OCc2cccc(-c3cccc(OCCCNC[C@H](O)CO)c3Cl)c2Cl)cc1OCc1cncc(C#N)c1` [Example 2054, (S)-5-((4-chloro-5-((2,2′-dichloro-3′-(3-((2,3-dihydroxypropyl)amino)propoxy)-[1,1′-biphenyl]-3-yl)methoxy)-2-(((1,3-dihydroxy-2-methylpropan-2-yl)amino)methyl)phenoxy)methyl)nicotinonitrile], the IC50 was 0.21 to 10 nM. For `Cc1c(COc2cc(OCc3cncc(C#N)c3)c(CN3CCCC[C@H]3C(=O)O)cc2Cl)cccc1-c1cccc(C(=O)N2CCCC2)c1C` [Example 4037, (S)-1-(5-chloro-2-((5-cyanopyridin-3-yl)methoxy)-4-((2,2′-dimethyl-3′-(pyrrolidine-1-carbonyl)-[1,1′-biphenyl]-3-yl)methoxy)benzyl)piperidine-2-carboxylic Acid], the IC50 was 100 to 2000 nM. Work on `CC(CO)(CO)NCc1cc(Cl)c(OCc2cccc(-c3cccc(OCCCN4CC[C@@H](O)C4)c3Cl)c2Cl)cc1OCc1cccc(Cl)c1` [Example 2066, (R)-2-((5-chloro-2-((3-chlorobenzyl)oxy)-4-((2,2′-dichloro-3′-(3-(3-hydroxypyrrolidin-1-yl)propoxy)-[1,1′-biphenyl]-3-yl)methoxy)benzyl)amino)-2-methylpropane-1,3-diol] yielded an IC50 of 0.21 to 10 nM. Work on `Cc1c(COc2cc(OCc3cncc(C#N)c3)c(CNC(C)(CO)CO)cc2Cl)cccc1-c1cccc(OCCCN2CCC[C@H](CO)C2)c1C` [Example 2295, (S)-5-((4-chloro-2-(((1,3-dihydroxy-2-methylpropan-2-yl)amino)methyl)-5-((3′-(3-(3-(hydroxymethyl)piperidin-1-yl)propoxy)-2,2′-dimethyl-[1,1′-biphenyl]-3-yl)methoxy)phenoxy)methyl)nicotinonitrile] yielded an IC50 of 0.21 to 10 nM. `Cc1c(COc2cc(OCc3cncc(C#N)c3)c(CN3CCCC[C@H]3C(=O)O)cc2Cl)cccc1-c1cccc(OCCCNCC(O)c2ccccn2)c1C` (stereo partly drawn) [Example 2222, (2S)-1-(5-chloro-2-((5-cyanopyridin-3-yl)methoxy)-4-((3′-(3-(2-hydroxy-2-(pyridin-2-yl)ethylamino)propoxy)-2,2′-dimethylbiphenyl-3-yl)methoxy)benzyl)piperidine-2-carboxylic Acid] was tested, and the IC50 was 0.21 to 10 nM. With `Cc1c(COc2cc(OCc3cncc(C#N)c3)c(CN3CCCC[C@H]3C(=O)O)cc2Cl)cccc1-c1cccc(OCCCNC[C@@H](O)c2ccccc2)c1C` [Example 2221, (2S)-1-(5-chloro-2-((5-cyanopyridin-3-yl)methoxy)-4-((3′-(3-((S)-2-hydroxy-2-phenylethylamino)propoxy)-2,2′-dimethylbiphenyl-3-yl)methoxy)benzyl)piperidine-2-carboxylic Acid] the IC50 was 0.21 to 10 nM. `Cc1c(COc2cc(OCc3cncc(C#N)c3)c(CN3CCCCC3CO)cc2Cl)cccc1-c1cccc(OCCCN2CC[C@@H](O)C2)c1C` (stereo partly drawn) [Example 2334, 5-((4-chloro-2-((2-(hydroxymethyl)piperidin-1-yl)methyl)-5-((3′-(3-((R)-3-hydroxypyrrolidin-1-yl)propoxy)-2,2′-dimethyl-[1,1′-biphenyl]-3-yl)methoxy)phenoxy)methyl)nicotinonitrile] was tested, and the IC50 was 0.21 to 10 nM.
